In patent US6797694B2, “Chemical compounds having ion channel blocking activity for the treatment of immune dysfunction” (priority 1999, dated 2004):

System: T cells
Test: Inhibition of antigen (PPD) induced T cell proliferation, [3H]thymidine incorporation
Type: cell-based
Conditions: solvent control 26.1
Procedure: The chemical compounds used according to the invention prevent immunological proliferation by selective inhibition of the Ca^2+-activated K-channels in T- and B-lymphocytes. This effect may be verified using various proliferation assays. In this experiment the proliferative assay described by Ødum et al. [Ødum N, Kanner S B, Ledbetter J A, & Svejgaard A; J. Immunol. 1993 150 (12) 5289-5298] was used.
Assays were performed in culture medium (RPMI 1640; available from Gibco, Grand Island, N.Y.) supplemented with 10% pooled human serum, 2 mM L-glutamine, 100 μg/ml penicillin, and 100 μg/ml streptomycin (available from Novo Nordisk, Copenhagen, Denmark) in 96-well round bottom tissue culture plates (available from Nunc, Roskilde, Denmark) with a final volume of 200 μl.
T cells were pre-incubated for three hours with the test compounds before addition of antigen (PPD; Purified protein derivative, available from Statens Serum Institut, Denmark; 100 μg/ml). T cells were cultured at 5×10^4 cells/well for 144 hours. Twelve hours before harvest, [^3H]thymidine ([…]) was added. The cells were harvested onto glass fibre filters, and the [^3H]thymidine incorporation was measured in a scintillation counter. The results were expressed as mean counts per minute (cpm) from triplicate cultures.

| SMILES | T Cell Proliferation (test compound 10 μM) [cpm × 10^−3] | T Cell Proliferation (test compound 25 μM) [cpm × 10^−3] |
| --- | --- | --- |
| OC(c1ccccc1)(c1ccccc1)c1ccc(Cl)cc1 [A, (4-chlorophenyl-diphenyl)-carbinol] | 19.8 | 18.1 |
| CC(=O)C(c1ccccc1)(c1ccccc1)c1ccccc1 [C, 1,1,1-triphenylacetone] | 18 | 19 |
